Laboratory results taken from patent US8524274B2, “Liposomal composition comprising an active ingredient for relaxing smooth muscle, the production of this composition and the therapeutic use thereof” (Polymun Scientific Immunbiologische Forschung GmbH, priority 2004, dated 2013).
Structures can show the parent of a compound that is named as a salt.

Tests used:
[1] = Active loading of DPPC/cholesterol liposomes via H+ gradient; active ingredient and lipid content by rp-HPLC; type: physicochemical; settings: two-stage variant; converted from the inclusion rate
Description: External loading of liposomes with sildenafil by means of H^+ gradient. The best inclusion rates were achieved under the following conditions. The lipids (molar DPPC:cholesterol ratio=55:45; in total 13 to 15 μmol per ml of aqueous phase) were dissolved in ethanol and this solution was injected into 125 mM ammonium sulphate solution. After spontaneous vesicle formation, the remaining, external ammonium sulphate solution was replaced by a 5% glucose solution and sildenafil citrate was added. In this way, an H^+ gradient formed between the inside and outside of the lipid vesicles. pH values below 2.5 are less suitable owing to resultant hydrolysis problems, and pH values greater than 5.5 are also not preferred, owing to the increasingly flat H^+ gradient. An aqueous 125 mM ammonium sulphate solution typically has a pH in the range of about 5-5.5. After removal of sildenafil which has not been included by means of gel filtration, both the active ingredient content and the lipid content were determined by means of rp-HPLC. Liposome size and distribution were determined by means of photon correlation spectroscopy (PCS). […]

[2] = Solubility of the active ingredient in loading buffer systems and in water; type: physicochemical; settings: for solubility in citrate buffer: citric acid (intraliposomal) and citric acid/sodium carbonate pH 7.5-8.0 (extraliposomal)
Text: NH3, which is present in a reversible equilibrium with ammonium sulphate in the intraliposomal aqueous medium, attempts to migrate out through the liposome membrane and to leave behind an H^+. Sildenafil migrates in the opposite direction into the liposome, takes up the hydrogen ion H^+, becomes more hydrophilic thereby and therefore remains in the […]. In this way, sildenafil can be efficiently loaded into liposomes. This applies in a similar manner also to the sildenafil alternatives tadalafil and vardenafil.

Row | solubility in water ([2]; water) | SMILES | active ingredient per ml of liposomal suspension [1] | solubility in citrate buffer [2]
1 |  | CCCc1nn(C)c2c(=O)[nH]c(-c3cc(S(=O)(=O)N4CCN(C)CC4)ccc3OCC)nc12 [sildenafil] | 1000-1500 μg of active ingredient per ml of liposomal suspension | only poorly soluble or not soluble at all
2 | dissolves very readily | CCCc1nn(C)c2c(=O)[nH]c(-c3cc(S(=O)(=O)N4CCN(C)CC4)ccc3OCC)nc12 [sildenafil citrate] |  | insoluble or scarcely soluble
